Several values for one entry are separate records, joined by “and”; a condition that tells them apart may be missing. Equal entries are not always repeated.
What was measured:
WT MelBSt = target: T1, WT MelBSt (Salmonella typhimurium, UniProt P30878); conditions: cited from earlier work
T1 construct: Cys scanning mutagenesis for the full-length MelBSt; His10 (C); made in house; host or cells: E. coli DW2

D59C MelBSt = target: T2, D59C MelBSt (Salmonella typhimurium, UniProt P30878, D59C); assay: Trp→dansyl galactoside (D2G) FRET time trace and IC50 of D2G displacement (D59C); format: binding
T2 construct: Cys scanning mutagenesis for the full-length MelBSt; His10 (C); made in house; host or cells: E. coli DW2
T2 sequence (P30878 whole entry D59C): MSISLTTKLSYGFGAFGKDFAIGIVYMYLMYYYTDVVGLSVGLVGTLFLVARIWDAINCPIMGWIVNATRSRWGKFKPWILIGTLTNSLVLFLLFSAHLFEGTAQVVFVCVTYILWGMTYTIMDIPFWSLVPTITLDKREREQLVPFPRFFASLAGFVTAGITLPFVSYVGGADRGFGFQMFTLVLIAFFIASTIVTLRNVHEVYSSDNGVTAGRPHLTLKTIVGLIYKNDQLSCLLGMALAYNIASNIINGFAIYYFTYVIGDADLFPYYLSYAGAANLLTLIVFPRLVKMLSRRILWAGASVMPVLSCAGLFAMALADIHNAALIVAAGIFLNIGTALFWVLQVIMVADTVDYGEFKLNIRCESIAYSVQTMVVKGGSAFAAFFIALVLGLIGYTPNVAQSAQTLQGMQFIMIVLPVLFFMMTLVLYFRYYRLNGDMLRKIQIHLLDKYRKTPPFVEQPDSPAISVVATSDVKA
Method: Fig. 1 Functional characterizations. a [^3H] Melibiose transport time course with intact cells. […] Inset, melibiose fermentation assay. Transformants with DW2 strain were plated on MacConkey agar plates containing 30 mM melibiose as the sole carbohydrate source and pH sensor neutral red, and incubated at 37 °C for 16–18 h before imaging. Number of tests = 3, from different batch of cells or duplicate measurements from same batch of sample. b Ligand binding by Trp→dansyl galactoside (D^2G) FRET assay. Purified proteins at 1 μM concentration in 20 mM Tris-HCl, pH 7.5, 100 mM CholCl, 10% glycerol, and 0.03% UDM were subjected to steady-state fluorescence measurements as described in Methods. On the time-trace, 1.8 μL of 1 mM D^2G at 10 μM was added into 180 μL of protein solutions at 1-min point, followed by supplying 10 μL of 5 mM DDMB or 5 mM α-NPG to displace the bound D^2G. For testing Na^+ or Li^+ binding, they are added into the solution before displacement with the second sugar. The structure of DDMB or α-NPG is shown in a chair form, and the carbon positions are labeled. Glycosidic bonds are indicated by arrows. Both are α-galactosides containing a substituent at the anomeric carbon-1. The data were from duplicate measurements.
Steady-state fluorescence measurements were performed with an AMINCO-Bowman series 2 spectrometer with purified MelBSt at 1 μM in 20 mM Tris-HCl, pH 7.5, 100 mM CholCl, 10% glycerol, 0.03% UDM. Using an excitation wavelength at 290 nm, the emission intensity was recorded at 490 nm. On a time-trace, D^2G, NaCl or LiCl, then DDMB or α-NPG, were sequentially added into the protein solutions at a 1 min-interval. […] An identical volume of water was used for the control. The decrease in intensity after each addition of DDMB or α-NPG was corrected by the dilution effect and plotted as a function of the accumulated α-NPG concentrations or estimated DDMB concentrations. The 50% inhibitory concentration (IC50) was determined by fitting a hyperbolic function to the data (OriginPro 2020b). The final concentration of each detergent is estimated to be 234 μM, which is less than their CMC value for (DDMB, 295 μM).
Supplementary Figure 2. Determination of DDMB binding affinity to MelBSt. (a) Titration with DDMB or a-NPG. MelBSt in 20 mM Tris-HCl, pH 7.5, 100 mM CholCl, 10% glycerol, 0.03% UDM without (1) or with 100 mM NaCl (2) were added with D2G at 10 μM at 1-min time point as indicated by triangle symbols on the Trp®dansyl FRET time trace. Starting at the 2-min of time point, DDMB or a-NPG solution was supplemented consecutively at a 1-min interval into MelBSt solution till no change in fluorescence intensity reached as indicated in star symbols. DDM and UDM were used as negative controls. 1% DDM or UDM was titrated into the mixture, The […]
At 2-min time point, additions of galactosides were colored in pink, a-NPG in yellow, UDM in blue, DDM in light blue, water in gray traces, respectively. (b) IC50 determination. The intensity decrease at each titration were corrected by the dilution effect, and plotted as a function of the accumulated DDMB or α-NPG concentration. The 50% inhibitory concentration (IC50) was determined by fitting the data to a hyperbolic function (OriginPro 2020b). Results are presented in […]
(1 picture or pasted object on this page, not shown here)

T1 sequence (P30878 whole entry): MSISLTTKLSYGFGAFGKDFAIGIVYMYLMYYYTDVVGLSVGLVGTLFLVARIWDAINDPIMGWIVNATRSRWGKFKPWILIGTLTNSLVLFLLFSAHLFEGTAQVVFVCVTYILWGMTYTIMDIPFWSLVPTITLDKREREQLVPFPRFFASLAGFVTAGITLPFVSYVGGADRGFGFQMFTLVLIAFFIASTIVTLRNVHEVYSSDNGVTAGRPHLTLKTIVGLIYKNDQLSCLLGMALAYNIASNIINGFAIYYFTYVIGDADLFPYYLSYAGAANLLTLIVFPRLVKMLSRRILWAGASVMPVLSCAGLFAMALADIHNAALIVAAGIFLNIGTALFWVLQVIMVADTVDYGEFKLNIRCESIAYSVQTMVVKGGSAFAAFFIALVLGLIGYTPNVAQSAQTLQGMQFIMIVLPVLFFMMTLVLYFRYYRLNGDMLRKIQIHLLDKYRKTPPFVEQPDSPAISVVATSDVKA

## CN(C)c1cccc2c(S(=O)(=O)NCCS[C@@H]3O[C@H](CO)[C@H](O)[C@H](O)[C@H]3O)cccc12 [D^2G, 2′-(N-dansyl)aminoalkyl-1-thio-β-D-galactopyranoside]
WT MelBSt
  Kd: 10 µM
D59C MelBSt; D59C MelBSt mutant H+, Time 1.58333
  Trp to D2G FRET signal, Test: 1.236 and 1.275
D59C MelBSt; D59C MelBSt mutant H+, Time 1.6
  Trp to D2G FRET signal, Test: 1.234 and 1.287
D59C MelBSt; D59C MelBSt mutant H+, Time 1.61667
  Trp to D2G FRET signal, Test: 1.243 and 1.289
D59C MelBSt; D59C MelBSt mutant H+, Time 1.63333
  Trp to D2G FRET signal, Test: 1.234 and 1.283
D59C MelBSt; D59C MelBSt mutant H+, Time 1.65
  Trp to D2G FRET signal, Test: 1.232 and 1.292
D59C MelBSt; D59C MelBSt mutant H+, Time 1.66667
  Trp to D2G FRET signal, Test: 1.262 and 1.286
D59C MelBSt; D59C MelBSt mutant H+, Time 1.68333
  Trp to D2G FRET signal, Test: 1.239 and 1.271
D59C MelBSt; D59C MelBSt mutant H+, Time 1.7
  Trp to D2G FRET signal, Test: 1.251 and 1.2854
D59C MelBSt; D59C MelBSt mutant H+, Time 1.71667
  Trp to D2G FRET signal, Test: 1.228 and 1.2851
D59C MelBSt; D59C MelBSt mutant H+, Time 1.73333
  Trp to D2G FRET signal, Test: 1.233 and 1.277
D59C MelBSt; D59C MelBSt mutant H+, Time 1.75
  Trp to D2G FRET signal, Test: 1.255 and 1.269
D59C MelBSt; D59C MelBSt mutant H+, Time 1.76667
  Trp to D2G FRET signal, Test: 1.25 and 1.265
D59C MelBSt; D59C MelBSt mutant H+, Time 1.78333
  Trp to D2G FRET signal, Test: 1.239 and 1.277
D59C MelBSt; D59C MelBSt mutant Li+, Time 1.58333
  Trp to D2G FRET signal, Test: 1.183 and 1.18 and 1.353
D59C MelBSt; D59C MelBSt mutant Li+, Time 1.6
  Trp to D2G FRET signal, Test: 1.194 and 1.191 and 1.312
D59C MelBSt; D59C MelBSt mutant Li+, Time 1.61667
  Trp to D2G FRET signal, Test: 1.182 and 1.19 and 1.349
D59C MelBSt; D59C MelBSt mutant Li+, Time 1.63333
  Trp to D2G FRET signal, Test: 1.194 and 1.172 and 1.325
D59C MelBSt; D59C MelBSt mutant Li+, Time 1.65
  Trp to D2G FRET signal, Test: 1.192 and 1.191 and 1.377
D59C MelBSt; D59C MelBSt mutant Li+, Time 1.66667
  Trp to D2G FRET signal, Test: 1.194 and 1.178 and 1.324
D59C MelBSt; D59C MelBSt mutant Li+, Time 1.68333
  Trp to D2G FRET signal, Test: 1.1972 and 1.188 and 1.334
D59C MelBSt; D59C MelBSt mutant Li+, Time 1.7
  Trp to D2G FRET signal, Test: 1.181 and 1.193 and 1.331
D59C MelBSt; D59C MelBSt mutant Li+, Time 1.71667
  Trp to D2G FRET signal, Test: 1.193 and 1.183 and 1.334
D59C MelBSt; D59C MelBSt mutant Li+, Time 1.73333
  Trp to D2G FRET signal, Test: 1.188 and 1.175 and 1.3208
D59C MelBSt; D59C MelBSt mutant Li+, Time 1.75
  Trp to D2G FRET signal, Test: 1.1972 and 1.183 and 1.3266
D59C MelBSt; D59C MelBSt mutant Li+, Time 1.76667
  Trp to D2G FRET signal, Test: 1.189 and 1.172 and 1.31
D59C MelBSt; D59C MelBSt mutant Na+, Time 1.58333
  Trp to D2G FRET signal, Test: 1.29 and 1.292 and 1.375
D59C MelBSt; D59C MelBSt mutant Na+, Time 1.6
  Trp to D2G FRET signal, Test: 1.287 and 1.293 and 1.38
D59C MelBSt; D59C MelBSt mutant Na+, Time 1.61667
  Trp to D2G FRET signal, Test: 1.293 and 1.2915 and 1.362
D59C MelBSt; D59C MelBSt mutant Na+, Time 1.63333
  Trp to D2G FRET signal, Test: 1.299 and 1.278 and 1.358
D59C MelBSt; D59C MelBSt mutant Na+, Time 1.65
  Trp to D2G FRET signal, Test: 1.272 and 1.269 and 1.372
D59C MelBSt; D59C MelBSt mutant Na+, Time 1.66667
  Trp to D2G FRET signal, Test: 1.295 and 1.266 and 1.37
D59C MelBSt; D59C MelBSt mutant Na+, Time 1.68333
  Trp to D2G FRET signal, Test: 1.287 and 1.289 and 1.378
D59C MelBSt; D59C MelBSt mutant Na+, Time 1.7
  Trp to D2G FRET signal, Test: 1.301 and 1.273 and 1.365
D59C MelBSt; D59C MelBSt mutant Na+, Time 1.71667
  Trp to D2G FRET signal, Test: 1.2912 and 1.279 and 1.361
D59C MelBSt; D59C MelBSt mutant Na+, Time 1.73333
  Trp to D2G FRET signal, Test: 1.293 and 1.29 and 1.3441
D59C MelBSt; D59C MelBSt mutant Na+, Time 1.75
  Trp to D2G FRET signal, Test: 1.291 and 1.287 and 1.358
D59C MelBSt; D59C MelBSt mutant Na+, Time 1.76667
  Trp to D2G FRET signal, Test: 1.307 and 1.279 and 1.387
D59C MelBSt; D59C MelBSt mutant Na+, Time 1.78333
  Trp to D2G FRET signal, Test: 1.304 and 1.264
